This is an account of results in patent US9636314B2, “Medicament for treatment of non-insulin dependent diabetes mellitus, hypertension and/or metabolic syndrome” (Stevia Limited, priority 2001, dated 2017).

Molecules are shown by their SMILES. Entries after “also recorded” stand apart in the source; their conditions may differ.

One series deals with isolated mouse islets. The experiment in a line: glucose-stimulated insulin secretion from isolated mouse islets. As to conditions: for maximal stimulatory dose / glucose-stimulated insulin secretion: NMRI mouse islets; for glucose-stimulated insulin secretion: 16.7 mmol/l, 10^−9-10^−3 mol/l. Type of series: cell-based. As for the experimental part:
Islet from 6-10 NMRI mice were isolated and incubated in the presence of 16.7 mmol/l and 10^−9-10^−3 mol/l stevioside or 10^−9-10^−3 mol/l steviol. The results of these tests are illustrated in FIGS. 4a and 4b where each column represents mean±SEM from 24 incubations of single islets. Black bars in FIG. 4a indicate that stevioside is present and hatched bars indicate that stevioside is absent. Black bars in FIG. 4b indicate that steviol is present and hatched bars indicate that steviol is absent. The influence of the maximal stimulatory doses of 10^−3 mol/l stevioside and 10^−6 mol/l steviol was studied in NMRI mouse islets over a range between 0 and 16.7 mmol/l glucose. […] Black bars in FIG. 7a indicate that stevioside is present and hatched bars indicate that stevioside is absent. Black bars in FIG. 7b indicate that steviol is present and hatched bars indicate that steviol is absent.

The subject of series [1] is rats. The experiment in a line: intravenous administration to rats (earlier work of the inventors). Type of series: in vivo, rat. The settings on record: i.v.
The conditions of series [2]: six in vitro and one in vivo mutagenicity assays; cited from earlier work.
The subject of the next series is mice. The settings on record: mouse, in vivo; cited from earlier work.
In series [3] the test system is rats. The settings on record: rat, in vivo; cited from earlier work.
Series [4] relates to hamsters. The settings on record: cited from earlier work.
The subject of series [5] is Salmonella typhirmurium strains. The settings on record: Salmonella typhimurium TA 98 and TA 100; cited from earlier work.
Series [6] has as its system GK rats. The experiment in a line: i.v. glucose tolerance test with stevioside in GK rats (plasma glucose and insulin). Type of series: in vivo, rat. As to conditions: 2.0 g glucose/kg + 0.2 g stevioside/kg i.v. As for the experimental part: In the following examples, the type II diabetic Goto-Kakizaki (GK) rats originated from Takeda Chemical Ind., Tokyo, Japan and were bred locally. As examples of the effects of a compound including the chemical formulas II, stevioside was tested on normal Wistar rats and on GK rats. 2.0 g glucose/kg body weight and 0.2 g stevioside/kg body weight were dissolved in 0.9% saline and infused intravenously. The plasma glucose and insulin levels were measured over a period of 2 hours. The results are shown in FIGS. 2a, 2b, 3a and 3b, were the O-O series (n=6 for Wistar and n=14 for GK) illustrate glucose infused alone and the (2)-(2) series (n=6 for Wistar and n=12 for GK) illustrate the combined glucose and stevioside infusion. Data are given as mean±SEM.

Series [7] has as its system GK rats. The series can be described thus: plasma glucagon during glucose tolerance test in GK rats. Type of series: in vivo, rat. The settings on record: stevioside 0.2 g/kg i.v. bolus, glucose 2.0 g/kg. The method, then:
During a glucose tolerance test, an intravenous bolus of stevioside of 0.2 g/kg body weight was injected in GK rats (the (2)-(2) serie (n=6)). GK rats receiving 0.9% saline intravenously served as controls (the O-O serie (n=6)). Glucose 2.0 g/kg body weight was administered as a bolus at timepoint 0 min. The plasma glucagon responses are shown as mean±SEM in FIGS. 5a (control) and 5b (GK). The plasma glucagon was suppressed in the stevioside treated GK rat.

Series [8] concerns GK rats. The series can be described thus: blood pressure during 6 weeks treatment of GK rats with stevioside. Type of series: in vivo, rat. The settings on record: 0.025 g/kg/24 h in drinking water, detectable after 2 weeks, then stable. The method, then: GK rats were treated with stevioside 0.025 g/kg body weight/24 h for 6 weeks. Stevioside was administered in the drinking water. GK rats receiving drinking water with 0.111 g D-glucose/kg body weight/24 h served as controls. Systolic (FIG. 6a, control: O-O series, stevioside-treated: (2)-(2) series) and diastolic (FIG. 6b, control: O-O series, stevioside-treated: (2)-(2) series) blood pressures were measured on the tail.

The subject of series [9] is type II diabetic patients. The experiment in a line: acute paired cross-over test meal study with oral stevioside. Type of series: in vivo, human. As to conditions: 1 g stevioside orally with standard meal. An excerpt:
Twelve type II diabetic patients (4 female/8 males) with a mean age of 65.8±1.6 years, a diabetes duration of 6.0±1.3 years, a mean body mass index of 28.5±1.0, and a mean glycated hemoglobin HbA1c of 7.4±0.4 percent were included in the study. The experiment was an acute, paired, cross-over study in which two test meals were served during the experiments (A: Standard meal supplemented with 1 g of stevioside given orally; B: Standard meal given together with 1 g of gelatine (placebo) given orally. The total energy content of the test meals was 1725 kJ (protein 16 E %, fat 30 E %, carbohydrate 54 E %). Blood samples were drawn from an antecubital vein 30 minutes before and 240 minutes after ingestion of the test meal. The arterial blood pressure was continuously monitored during the experiment. Students paired t-test was used for comparing the effects of stevioside with placebo on the parameters measured. Data are given as mean±SEM.

Another series has as its system GK-rats. The series can be described thus: four-week test diets (stevioside and/or soy) in Goto-Kakizaki rats with glucose tolerance test. The settings on record: 4 weeks, p<0.05. Type of series: in vivo, rat. The method, then: Four test diets (A: Standard carbohydrate rich laboratory animal diet (Altromin); n=12 (Alt). B: Altromin supplemented with stevioside (Altromin+Stevioside); n=12; (Alt+Ste). C: Soy plus 20% Altromin; n=12; (Soy). D: Soy plus 20% Altromin plus stevioside; n=12; (Soy+Ste)) were administered for four weeks to four groups of adult rats. Each experimental group consisted of twelve female Goto-Kakizaki wish an age of 9 weeks. The rats received the stevioside (0.025 g/kg body weight/day) with the drinking water. […] Plasma concentrations of glucose, insulin, and glucagon were measured during the glucose tolerance test. Immediately before the glucose tolerance test fasting levels of triglycerides and cholesterol were determined. Concomitantly, the systolic blood pressure was measured using a tail cuff. (Plasma glucose was measured using MPR 3, 166 391, Glucose/GOD-PAP Method from Boehringer Mannheim) (Plasma insulin was measured using Sensitive Rat Insulin RIA, Cat #SRI-13K from Linco) (Plasma glucagon was measured using Glucagon RIA. Cat #GL-32K from Linco) (Blood pressure was measured using TSE Non-Invasive Blood Pressure Monitoring System from Technical Scientific Equipment GmbK) (Plasma cholesterol was measured GOD-PAP from Roche and triglycerides was measured using GHOD-PAP from Roche)

The nature of series [10]: stevioside infusion at normal blood glucose. As to conditions: bolus or constant intravenous infusion. Type of series: in vivo.
For series [11] the following is noted: rats; cited from earlier work.
The conditions of series [12]: isolated perfused rat liver; cited from earlier work.
For the next series, the system named is F344 rats. As to conditions: cited from earlier work.
For series [13], the system named is hamsters. The settings on record: doses as high as 2.5 g/kg body weight/day; cited from earlier work.
The test system of series [14] is isolated normal pancreatic rat islets. The settings on record: 7 mmol/l D-glucose; stevioside 1.0 mmol/l; cited from earlier work.
Series [15] concerns spontaneously hypertensive rats. As to conditions: cited from earlier work.

As for `C=C1C[C@@]23CC[C@H]4[C@@](C)(CCC[C@@]4(C)C(=O)O)[C@@H]2CC[C@]1(O)C3` [steviol], in the series on isolated mouse islets, the “stimulation of insulin secretion compared with stevioside” value is “to a greater extent”, the maximal stimulatory dose is on record as 10^−6 mol/l and the glucose-stimulated insulin secretion result is recorded as “capable of potentiating glucose-stimulated insulin secretion”. The “effect when administered intravenously to rats” value in the series on rats [1] was “anti-hyperglycemic, glucagonostatic and insulinotropic effect”. Further, the mutagenicity result in series [2] is reported as “dose-related positive responses in some mutagenicity test”. Besides, the LD50 entry in the series on mice was “higher than 15 g/kg body weight”. The LD50 result in the series with rats [3] was “higher than 15 g/kg body weight”. The LD50 in the series on hamsters [4] (hamster, in vivo) is on record as 5-6 g/kg body weight. Moreover, the “finding that accompanied lethality” value in the series with hamsters [4] (hamsters, correlated to increases in blood urea nitrogen and creatinine) is recorded as “degeneration of the proximal tubular cells”. Besides, the mutagenic effect entry in series [5] was “no mutagenic effect”.
Consider `C=C1C[C@@]23CC[C@H]4[C@@](C)(CCC[C@@]4(C)C(=O)O[C@@H]4O[C@H](CO)[C@@H](O)[C@H](O)[C@H]4O)[C@@H]2CC[C@]1(O[C@@H]1O[C@H](CO)[C@@H](O)[C@H](O)[C@H]1O[C@@H]1O[C@H](CO)[C@@H](O)[C@H](O)[C@H]1O)C3` [stevioside], for which, in the series with GK rats [6], the “time at which a significant decrease of plasma glucose was observed” value stood at 30 min. Moreover, the “blood glucose response to intravenous glucose” value in the series on GK rats [6] (2 hours) is “inhibited blood glucose responses; also recorded: diminished glucose response”. Further, the insulin response entry in the series on GK rats [6] (compared to the Wistar rat) is reported as “pronounced increase in the insulin response”. Further, in the series on isolated mouse islets, the maximal stimulatory dose was 10^−3 mol/l and the glucose-stimulated insulin secretion result is listed as “capable of potentiating glucose-stimulated insulin secretion”. For the same compound, the plasma glucagon entry in the series with GK rats [7] is “suppressed”. Besides, the “decrease in the blood pressure (systolic and diastolic, tail)” value with GK rats [8] is 10-15%. Besides, the “reduction of the postprandial blood glucose response compared to placebo” value in series [9] (mean±SEM, p<0.004) is recorded as 18±5%. Moreover, the “absolute IAUC of postprandial blood glucose” value in series [9] (mean±SEM, p<0.02 vs placebo) came to 522±64 mmol/l×240 min. Moreover, in series [9] (mean±SEM, p<0.045 vs placebo), the “postprandial glucagon like peptide-1 (GLP-1) levels” value was determined as 1529±296. This compound showed a postprandial glucagon levels in series [9] (mean±SEM, p=0.02 vs placebo) of 281±33. For the same compound, the “insulin response (IAUC)” value in series [9] (p=0.09, not statistically significant) is on record as “tended to stimulate the insulin response”. For the same compound, in the series with GK-rats, the “suppression of the systolic blood pressure (Δ), stevioside in combination with Altromin” value is reported as −28 mmHg and the “suppression of the systolic blood pressure (Δ), stevioside in combination with soy” value is −21 mmHg. In addition, in series [10], the hypoglycemia result is reported as “did not cause any hypoglycemia”. Also, the “effect when administered intravenously to rats” value in the series on rats [1] was “anti-hyperglycemic, glucagonostatic and insulinotropic effect”. Besides, the route of excretion result in series [11] is given as “excreted by the urine”. The metabolism result in series [12] is “not metabolised”. Besides, the mutagenicity result in [2] is reported as “not mutagenic”. In the series on F344 rats, the carcinogenicity entry is given as “not carcinogenic”. In the series on hamsters [13], the “effect on growth or reproduction” value was “no effect on growth or reproduction”. Moreover, in series [14], the insulin output result is given as “significant increase in insulin output”. For the same compound, the “fall in the systolic blood pressure” value in series [15] (200 mg/kg intravenously (maximum hypotensive effect)) was “only small”. Moreover, in [15] (intravenous stevioside), the heart rate result is recorded as “Neither the heart rate nor the plasma catecholamines were significantly changed” and the plasma catecholamines result was “Neither the heart rate nor the plasma catecholamines were significantly changed”. In addition, the mutagenic effect entry in series [5] is “no mutagenic effect”.
